Results reported in the supplement of paper PMC10307832.

Compound: O=C(O)c1ccc2c(c1)nc(Nc1cccc(Cl)c1)c1ccncc12 [Silmitasertib] + NC(=O)Nc1cc(-c2cccc(F)c2)sc1C(=O)N[C@H]1CCCNC1 [AZD7762] (partner 0.2 µM)
Test: relative viability (nuclei count vs DMSO), 5 days (fraction); higher = more cells survive
Procedure, shortened: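 Relative viability equals treated-well nuclei counts divided by vehicle-well nuclei counts. Counts came from 4× images of lung cancer cell lines grown in 1536-well plates for 5 days after pin-tool dosing on the day after seeding. Dosing used one drug alone or a fixed anchor-drug dose plus five library-drug doses (not always all listed) in √10 steps, and values are medians of duplicate plates.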

Cell Line | relative viability (first compound 0.04 µM) | relative viability (first compound 0.4 µM) | relative viability (first compound 1.265 µM) | relative viability (first compound 4 µM)
NCI-H596 | 1.04 | 1.08 | 0.953 | 0.957
NCI-H647 | 0.513 | 0.364 | 0.404 | 0.19
NCI-H650 | 1.17 | 0.524 | 0.907 | 0.982
NCI-H727 | 0.773 | 0.573 | 0.654 | 0.543
NCI-H838 | 0.828 | 0.864 | 1.03 | 0.951
NCI-H1355 | 0.729 |  | 0.776 | 0.679
NCI-H1395 | 0.425 | 0.42 | 0.421 | 0.41
NCI-H1437 | 1.2 | 1.06 | 1.02 | 1.06
NCI-H1651 | 0.505 | 0.449 | 0.481 | 0.675
NCI-H1666 | 0.915 | 0.857 | 0.763 | 0.627
NCI-H1703 | 0.136 |  | 0.153 | 0.146
NCI-H1734 | 0.555 | 0.445 | 0.544 | 0.513
NCI-H1755 | 0.407 | 0.479 | 0.528 | 0.494
NCI-H1792 | 0.737 | 0.56 | 0.59 | 0.444
NCI-H1793 | 0.725 | 0.457 | 0.654 | 0.515
NCI-H1915 | 0.752 |  | 0.77 | 0.535
NCI-H1944 | 0.591 | 0.399 | 0.547 | 0.528
NCI-H1975 | 0.775 |  | 0.647 | 0.795
NCI-H1993 | 0.925 | 0.653 | 0.721 | 0.663
NCI-H2085 | 0.974 | 0.702 | 0.86 | 0.858
NCI-H2087 | 1.34 | 1.1 | 1.35 | 0.817
NCI-H2126 | 1.05 | 0.836 | 1.09 | 0.934
NCI-H2170 | 0.89 | 0.554 | 0.836 | 0.968
NCI-H2347 | 0.656 | 0.663 | 0.531 | 0.633
NCI-H2405 | 0.803 | 0.754 | 0.617 | 0.634
NCI-H3122 | 1.04 | 0.705 | 0.99 | 0.92
PC-3 [JPC-3] | 0.862 | 0.723 | 0.897 | 0.75
PC-14 | 0.336 |  | 0.399 | 0.321
RERF-LC-KJ | 1.07 | 0.785 | 0.763 | 0.344
SW 900 | 0.72 | 0.578 | 0.691 | 0.338
